Reference: patent US7511047B2, “Kinase inhibitors” (Cytopia Research Pty Ltd, priority 2002, dated 2009)

Tests used:
Assay type in all cases: biochemical
Jak2 = molecular target: T1, Jak2 (Homo sapiens, UniProt O60674); experiment: JAK2 kinase domain assay (ELISA or Alphascreen); conditions: capacity to inhibit 50% of activity at 50 μM; read-out: Jak2 inhibitory activity
T1 construct: The kinase domain of humanJAK2 was amplified from U937mRNA; His tag (from pFastBac HTc vector) (N); made in house; host or cells: baculovirus; Sf9 insect cells for virus, High Five cells for large-scale production
T1 sequence (O60674 849-1124 limits assumed): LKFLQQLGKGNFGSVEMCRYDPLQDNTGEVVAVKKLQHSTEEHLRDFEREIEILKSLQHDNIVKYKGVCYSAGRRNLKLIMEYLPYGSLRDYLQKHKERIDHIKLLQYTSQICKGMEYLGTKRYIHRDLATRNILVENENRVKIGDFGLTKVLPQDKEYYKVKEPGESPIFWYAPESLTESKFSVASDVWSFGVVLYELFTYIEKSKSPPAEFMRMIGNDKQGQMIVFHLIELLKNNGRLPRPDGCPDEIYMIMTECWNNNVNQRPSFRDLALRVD
Description: (§1) For screening purposes, compounds were diluted in 96 well plates at a concentration of 20 μM. Plates were warmed at 37° C. for 30 minutes before assay.
(§2) • JAK1 PCR products were cloned into the pFastBac HTb expression vector (Gibco) via the Xho I and Kpn I sites. The JAK1 plasmid was then transformed into competent DH10Bac cells (Gibco), and the recombinant baculovirus produced prepared for transfection into Sf9 insect cells. JAK2 • The kinase domain of humanJAK2 was amplified from U937mRNA using the polymerase chain reaction with the following primers:
• JAK2 PCR products were cloned into the pFastBac HTc expression vector (Gibco) via the Sal I and Not I sites. The JAK2 plasmid was then transformed into competent DH10Bac cells (Gibco), and the recombinant baculovirus produced prepared for transfection into Sf9 insect cells. JAK3 • The kinase domain of humanJAK3 was amplified from U937mRNA using the polymerase chain reaction with the following primers: […]
(§3) Baculovirus preparations from each of the JAK family members were infected into five litres of High Five cells (Invitrogen) grown in High Five serum free medium (Invitrogen) to a cell density of approximately 1-2×10^6 cells/ml. Cells are infected with virus at a MOI of 0.8-3.0. Cells were harvested and lysed. JAK kinase domains were purified by affinity chromatography on a Probond (Invitrogen) nickel chelate affinity column.
(§4) Kinase assays were performed either in a 96 well capture-based ELISA assay or in 384 well Optiplates (Packard) using an Alphascreen Protein Tyrosine Kinase kit. In either casse using approximately 1.5 μg of affinity purified PTK domain in the presence of 50 mM HEPES, pH 7.5, 10 mM MgCl2, 150 mM NaCl and 10 μM-1 mM ATP. The biotinylated substrate biotin-EGPWLEEEEEAYGWMDF-NH2 (SEQ ID NO:9) (final concentration 5 μM) was used as substrate. In the ELISA assay tyrosine phosphorylation was quantitated following transfer to an avidin coated ELISA plate using peroxidase-linked anti-phospho-tyrosine antibody PY20. In the Alphascreen assay, Alphascreen phosphotyrosine acceptor beads followed by streptavidin donor beads were added under subdued light. The ELISA plates were read on a BMG Fluorostar, the Alphascreen plates were read on a Packard Fusion Alpha. Inhibitors were added to the assays fifteen minutes prior to the addition of ATP. Inhibitors were added in aqueous DMSO, with DMSO concentrations never exceeding 1%.

Jak3 = molecular target: T2, Jak3 (Homo sapiens, UniProt P52333); experiment: JAK3 kinase domain assay (ELISA or Alphascreen); conditions: capacity to inhibit 50% of activity at 50 μM; read-out: Jak3 inhibitory activity
T2 construct: The kinase domain of humanJAK3 was amplified from U937mRNA; His tag (from pFastBac HTb vector) (N); made in house; host or cells: baculovirus; Sf9 insect cells for virus, High Five cells for large-scale production
T2 sequence (P52333 822-1111 limits assumed): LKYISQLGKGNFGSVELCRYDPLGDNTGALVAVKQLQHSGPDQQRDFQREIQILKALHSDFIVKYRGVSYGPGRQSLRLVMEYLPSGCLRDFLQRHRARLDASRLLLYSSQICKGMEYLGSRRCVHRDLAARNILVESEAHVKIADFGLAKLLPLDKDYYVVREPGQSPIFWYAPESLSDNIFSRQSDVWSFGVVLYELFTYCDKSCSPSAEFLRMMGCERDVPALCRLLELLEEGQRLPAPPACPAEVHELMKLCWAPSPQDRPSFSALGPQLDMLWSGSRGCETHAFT
Description: as §1
• JAK2 PCR products were cloned into the pFastBac HTc expression vector (Gibco) via the Sal I and Not I sites. The JAK2 plasmid was then transformed into competent DH10Bac cells (Gibco), and the recombinant baculovirus produced prepared for transfection into Sf9 insect cells. JAK3 • The kinase domain of humanJAK3 was amplified from U937mRNA using the polymerase chain reaction with the following primers:
as §2, with “JAK3” for “JAK1”, “TYK2” for “JAK2”, “humanTYK2” for “humanJAK2”, “A549 mRNA” for “U937mRNA”, “primers: […]” for “primers:”
as §3, §4

abl = molecular target: T3, abl (Homo sapiens, UniProt P00519); experiment: abl kinase assay (ELISA or Alphascreen); conditions: capacity to inhibit 50% of activity at 50 μM; read-out: abl inhibitory activity
T3 sequence (P00519 242-493 limits assumed): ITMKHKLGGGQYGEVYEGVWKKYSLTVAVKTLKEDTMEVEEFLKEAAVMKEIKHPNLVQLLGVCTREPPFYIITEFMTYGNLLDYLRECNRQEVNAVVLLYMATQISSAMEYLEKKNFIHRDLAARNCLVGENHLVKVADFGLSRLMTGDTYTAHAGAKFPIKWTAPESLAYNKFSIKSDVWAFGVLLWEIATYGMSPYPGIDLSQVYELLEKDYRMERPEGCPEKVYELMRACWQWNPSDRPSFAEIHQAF
Description: as §1, §4

hck = hck (Homo sapiens, UniProt P08631); experiment: hck kinase assay (ELISA or Alphascreen); conditions: capacity to inhibit 50% of activity at 50 μM; read-out: hck inhibitory activity
hck, sequence (P08631 262-515 limits assumed, species assumed): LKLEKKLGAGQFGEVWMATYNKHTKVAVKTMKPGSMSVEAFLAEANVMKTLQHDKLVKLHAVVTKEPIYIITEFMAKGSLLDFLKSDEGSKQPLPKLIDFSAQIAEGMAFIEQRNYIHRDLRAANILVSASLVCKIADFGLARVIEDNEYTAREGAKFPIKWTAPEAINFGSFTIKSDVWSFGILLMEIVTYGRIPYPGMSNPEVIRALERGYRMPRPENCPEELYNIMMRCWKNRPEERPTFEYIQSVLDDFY
Description: as §1, §4

kdr = kdr (Homo sapiens, UniProt P35968); experiment: kdr kinase assay (ELISA or Alphascreen); conditions: capacity to inhibit 50% of activity at 50 μM; read-out: kdr inhibitory activity
kdr, sequence (P35968 834-1162 limits assumed, species assumed): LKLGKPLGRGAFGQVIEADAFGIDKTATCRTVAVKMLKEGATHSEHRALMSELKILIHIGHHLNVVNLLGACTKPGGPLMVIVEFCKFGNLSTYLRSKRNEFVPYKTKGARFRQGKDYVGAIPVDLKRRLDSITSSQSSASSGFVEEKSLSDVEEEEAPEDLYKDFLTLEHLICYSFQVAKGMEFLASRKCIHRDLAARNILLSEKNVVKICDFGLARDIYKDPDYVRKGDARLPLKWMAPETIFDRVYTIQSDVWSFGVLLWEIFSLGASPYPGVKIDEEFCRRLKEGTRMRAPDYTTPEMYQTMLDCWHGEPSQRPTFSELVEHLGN
Description: as §1, §4

SMILES	inhibition at 50 µM (Jak2)	inhibition at 50 µM (Jak3)	inhibition at 50 µM (abl)	inhibition at 50 µM (hck)	inhibition at 50 µM (kdr)
C[C@H](Nc1cncc(-n2cnc3ccc(C(=O)N4CCN(C)CC4)cc32)n1)c1ccccc1	< 50%	< 50%	< 50%	> 50%	< 50%
C[C@H](Nc1cncc(-n2cnc3ccc(NC(=O)C(C)(C)C)cc32)n1)c1ccccc1	> 50%	> 50%	> 50%	> 50%	> 50%
C[C@@H](Nc1cncc(-n2cnc(-c3ccccc3)c2)n1)c1ccccc1	< 50%	< 50%	> 50%	> 50%	> 50%
C[C@@H](Nc1cncc(-n2cnc3ccccc32)n1)c1ccccc1	> 50%	< 50%	> 50%	> 50%	> 50%
Cc1cncn1-c1cncc(NCc2ccc(F)cc2)n1	< 50%	< 50%	> 50%	> 50%	< 50%
C[C@H](Nc1cncc(-n2cnc3cc(C(=O)NCCCN4CCOCC4)ccc32)n1)c1ccccc1	> 50%	> 50%	> 50%	> 50%	> 50%
Cc1ccc2c(c1)ncn2-c1cncc(N[C@@H](C)c2ccccc2)n1	> 50%	< 50%	> 50%	> 50%	> 50%
C[C@H](Nc1cncc(-n2cnc3cc(C(=O)NCCCCN4CCOCC4)ccc32)n1)c1ccccc1	> 50%	> 50%	> 50%	> 50%	> 50%
CC(Nc1cncc(-n2cnc3ccccc32)n1)c1ccc(F)cc1 (stereo not drawn)	> 50%	< 50%	> 50%	> 50%	> 50%
C[C@H](Nc1cncc(-n2cnc3ccc(CO)cc32)n1)c1ccccc1	> 50%	> 50%	< 50%	> 50%	> 50%
C[C@H](Nc1cncc(-n2cnc3ccc(NC(=O)C4CC4)cc32)n1)c1ccccc1	< 50%	< 50%	> 50%	> 50%	> 50%
C[C@H](Nc1cncc(-n2cnc3ccc(NC(=O)c4ccncc4)cc32)n1)c1ccccc1	> 50%	< 50%	> 50%	< 50%	> 50%
C[C@H](Nc1cncc(-n2cnc3cc(C(=O)NCCN(C)C)ccc32)n1)c1ccccc1	> 50%	< 50%	> 50%	> 50%	> 50%
C[C@H](Nc1cncc(-n2cnc3cc(NS(=O)(=O)c4ccccc4)ccc32)n1)c1ccccc1	> 50%	> 50%	< 50%	< 50%	> 50%
Cc1nccn1-c1cncc(NCc2ccc(F)cc2)n1	< 50%	> 50%	< 50%	> 50%	< 50%
C[C@H](Nc1cncc(-n2cnc3ccccc32)n1)c1ccc(-c2cccnc2)cc1	> 50%	> 50%	< 50%	< 50%	> 50%
C[C@H](Nc1cncc(-n2cnc3cc(NC(=O)[C@@H]4CCCN4C(=O)OC(C)(C)C)ccc32)n1)c1ccccc1	> 50%	< 50%	> 50%	> 50%	> 50%
C[C@H](Nc1cncc(-n2cnc3ccc(NC(=O)c4ccccc4)cc32)n1)c1ccccc1	< 50%	< 50%	> 50%	> 50%	> 50%
CNC(=O)c1ccc2c(c1)ncn2-c1cncc(N[C@@H](C)c2ccccc2)n1	> 50%	< 50%	> 50%	> 50%	> 50%
C[C@H](Nc1cncc(-n2cnc3cc(-c4ccncc4)ccc32)n1)c1ccccc1	> 50%	< 50%	> 50%	> 50%	> 50%
C[C@H](Nc1cncc(-n2ccnc2)n1)c1ccccc1	< 50%	< 50%	> 50%	> 50%	< 50%
C[C@H](Nc1cncc(-n2cnc3cc(NC(=O)c4ccncc4)ccc32)n1)c1ccccc1	< 50%	< 50%	> 50%	> 50%	> 50%
C[C@H](Nc1cncc(-n2cnc3ccc(C(=O)NCCCCN4CCOCC4)cc32)n1)c1ccccc1	> 50%	> 50%	> 50%	> 50%	> 50%
C[C@H](Nc1cncc(-n2cnc3cc(-c4cccnc4)ccc32)n1)c1ccccc1	> 50%	> 50%	> 50%	> 50%	> 50%
C[C@H](Nc1cncc(-n2cnc3cc(CO)ccc32)n1)c1ccccc1	> 50%	< 50%	< 50%	> 50%	> 50%
Cc1nccn1-c1cncc(N[C@H](C)c2ccccc2)n1	< 50%	< 50%	< 50%	> 50%	< 50%
c1ccc(CNc2cncc(-n3ccnc3)n2)cc1	< 50%	< 50%	> 50%	> 50%	< 50%
CNC(=O)c1ccc2ncn(-c3cncc(N[C@@H](C)c4ccccc4)n3)c2c1	> 50%	> 50%	> 50%	> 50%	> 50%
C[C@H](Nc1cncc(-n2cnc3cc(C(=O)N4CCN(C)CC4)ccc32)n1)c1ccccc1	< 50%	< 50%	> 50%	> 50%	> 50%
C[C@H](Nc1cncc(-n2cnc3ccc(NS(C)(=O)=O)cc32)n1)c1ccccc1	> 50%	< 50%	> 50%	> 50%	> 50%
